Measurements from ChEMBL document CHEMBL1122718, “Benzylamines: synthesis and evaluation of antimycobacterial properties” (1984).

Assays:
Type in all cases: functional
Mycobacterium avium = assay: Minimum inhibitory concentration (MIC) of compound against Mycobacterium avium SN 304
[1] = system: Mycobacterium tuberculosis; assay: Minimum inhibitory concentration (MIC) against Mycobacterium tuberculosis H 37 Ra
[2] = system: Mycolicibacterium smegmatis; assay: Minimum inhibitory concentration (MIC) of compound against Mycobacterium smegmatis ATCC 607
[3] = system: Mycobacterium tuberculosis; assay: Fractional inhibitory concentration (FIC) was determined for the compound in combination of Isoniazid
[4] = system: Mycobacterium tuberculosis; assay: Fractional inhibitory concentration (FIC) was determined for the compound in combination of Rifampicin
[5] = system: Mycobacterium tuberculosis; assay: Fractional inhibitory concentration (FIC) was determined for the compound in combination of Streptomycin sulfate
[6] = system: Mycobacterium tuberculosis; assay: Fractional inhibitory concentration (FIC) was determined for the compound in combination of Tetracycline hydrochloride
[7] = system: Mycobacterium tuberculosis; assay: Fractional inhibitory concentration (FIC) was determined for the compound in combination of trimethoprim
[8] = system: Mycobacterium tuberculosis; assay: Compound was evaluated for the synergistic effect in combination with cycloserine for the inhibition of Mycobacterium tuberculosis H 37 Ra, using Lowenstein-Jensen medium (solid)
[9] = system: Mycobacterium tuberculosis; assay: Compound was evaluated for the synergistic effect in combination with cycloserine for the inhibition of Mycobacterium tuberculosis H 37 Ra, using middlebrook 7H9 medium (liquid)
[10] = system: Mycobacterium tuberculosis; assay: Compound was evaluated for the synergistic effect in combination with dapsone for the inhibition of Mycobacterium tuberculosis H 37 Ra, using Lowenstein-Jensen medium (solid)
[11] = system: Mycobacterium tuberculosis; assay: Compound was evaluated for the synergistic effect in combination with dapsone for the inhibition of Mycobacterium tuberculosis H 37 Ra, using middlebrook 7H9 medium (liquid)
[12] = system: Mycobacterium tuberculosis; assay: Compound was evaluated for the synergistic effect in combination with ethambutol for the inhibition of Mycobacterium tuberculosis H 37 Ra, using Lowenstein-Jensen medium (solid)
[13] = system: Mycobacterium tuberculosis; assay: Compound was evaluated for the synergistic effect in combination with ethambutol for the inhibition of Mycobacterium tuberculosis H 37 Ra, using middlebrook 7H9 medium (liquid)
[14] = system: Mycobacterium tuberculosis; assay: Compound was evaluated for the synergistic effect in combination with ethionamide for the inhibition of Mycobacterium tuberculosis H 37 Ra, using Lowenstein-Jensen medium (solid)
[15] = system: Mycobacterium tuberculosis; assay: Compound was evaluated for the synergistic effect in combination with capreomycin for the inhibition of Mycobacterium tuberculosis H 37 Ra, using Lowenstein-Jensen medium (solid)
[16] = system: Mycobacterium tuberculosis; assay: Compound was evaluated for the synergistic effect in combination with capreomycin for the inhibition of Mycobacterium tuberculosis H 37 Ra, using middlebrook 7H9 medium (liquid)
[17] = system: Mycobacterium tuberculosis; assay: Fractional inhibitory concentration (FIC) was determined for the compound in combination of Aminosalicylic acid
[18] = system: Mycobacterium tuberculosis; assay: Fractional inhibitory concentration (FIC) was determined for the compound in combination of Benzaldehyde thiosemicarbazone
[19] = system: Mycobacterium tuberculosis; assay: Fractional inhibitory concentration (FIC) was determined for the compound in combination of Capreomycin
[20] = system: Mycobacterium tuberculosis; assay: Fractional inhibitory concentration (FIC) was determined for the compound in combination of Cycloserine
[21] = system: Mycobacterium tuberculosis; assay: Fractional inhibitory concentration (FIC) was determined for the compound in combination of Dapsone
[22] = system: Mycobacterium tuberculosis; assay: Fractional inhibitory concentration (FIC) was determined for the compound in combination of Ethambutol
[23] = system: Mycobacterium tuberculosis; assay: Fractional inhibitory concentration (FIC) was determined for the compound in combination of Ethionamide
Mycobacterium lufu = assay: Minimum inhibitory concentration (MIC) of compound against Mycobacterium lufu L 209
Mycobacterium marinum = assay: Minimum inhibitory concentration (MIC) of compound against Mycobacterium marinum SN 1254
[24] = system: Mycobacterium tuberculosis; assay: Compound was evaluated for the synergistic effect in combination with ethionamide for the inhibition of Mycobacterium tuberculosis H 37 Ra, using middlebrook 7H9 medium (liquid)
[25] = system: Mycobacterium tuberculosis; assay: Compound was evaluated for the synergistic effect in combination with isoniazid for the inhibition of Mycobacterium tuberculosis H 37 Ra, using Lowenstein-Jensen medium (solid)
[26] = system: Mycobacterium tuberculosis; assay: Compound was evaluated for the synergistic effect in combination with isoniazid for the inhibition of Mycobacterium tuberculosis H 37 Ra, using middlebrook 7H9 medium (liquid)
[27] = system: Mycobacterium tuberculosis; assay: Compound was evaluated for the synergistic effect in combination with rifampicin for the inhibition of Mycobacterium tuberculosis H 37 Ra, using Lowenstein-Jensen medium (solid)
[28] = system: Mycobacterium tuberculosis; assay: Compound was evaluated for the synergistic effect in combination with rifampicin for the inhibition of Mycobacterium tuberculosis H 37 Ra, using middlebrook 7H9 medium (liquid)
[29] = system: Mycobacterium tuberculosis; assay: Compound was evaluated for the synergistic effect in combination with streptomycin sulfate for the inhibition of Mycobacterium tuberculosis H 37 Ra, using Lowenstein-Jensen medium (solid)
[30] = system: Mycobacterium tuberculosis; assay: Compound was evaluated for the synergistic effect in combination with streptomycin sulfate for the inhibition of Mycobacterium tuberculosis H 37 Ra, using middlebrook 7H9 medium (liquid)
[31] = system: Mycobacterium tuberculosis; assay: Compound was evaluated for the synergistic effect in combination with tetracycline hydrochloride for the inhibition of Mycobacterium tuberculosis H 37 Ra, using Lowenstein-Jensen medium (solid)
[32] = system: Mycobacterium tuberculosis; assay: Compound was evaluated for the synergistic effect in combination with tetracycline hydrochloride for the inhibition of Mycobacterium tuberculosis H 37 Ra, using middlebrook 7H9 medium (liquid)
[33] = system: Mycobacterium tuberculosis; assay: Compound was evaluated for the synergistic effect in combination with trimethoprim for the inhibition of Mycobacterium tuberculosis H 37 Ra, using Lowenstein-Jensen medium (solid)
[34] = system: Mycobacterium tuberculosis; assay: Compound was evaluated for the synergistic effect in combination with trimethoprim for the inhibition of Mycobacterium tuberculosis H 37 Ra, using middlebrook 7H9 medium (liquid)
[35] = system: Mycobacterium tuberculosis; assay: Compound was evaluated for the synergistic effect in combination with aminosalicylic acid for the inhibition of Mycobacterium tuberculosis H 37 Ra, using Lowenstein-Jensen medium (solid)
[36] = system: Mycobacterium tuberculosis; assay: Compound was evaluated for the synergistic effect in combination with aminosalicylic acid for the inhibition of Mycobacterium tuberculosis H 37 Ra, using middlebrook 7H9 medium (liquid)
[37] = system: Mycobacterium tuberculosis; assay: Compound was evaluated for the synergistic effect in combination with benzaldehyde thiosemicarbazone for the inhibition of Mycobacterium tuberculosis H 37 Ra, using Lowenstein-Jensen medium (solid)
[38] = system: Mycobacterium tuberculosis; assay: Compound was evaluated for the synergistic effect in combination with benzaldehyde thiosemicarbazone for the inhibition of Mycobacterium tuberculosis H 37 Ra, using middlebrook 7H9 medium (liquid)
[39] = system: Mycobacterium tuberculosis; assay: Minimum inhibitory concentration (MIC) of compound against Mycobacterium tuberculosis H 37 Rv

`CNCc1cc(Cl)cc(Cl)c1.Cl` gave an MIC (Mycobacterium avium) of 4 µg/mL, an MIC [1] of 10.2 µg/mL and an MIC [2] of 32 µg/mL. It also gave an FIC index [3] of 1, an FIC index [4] of 0.5 and an FIC index [5] of 0.125. It also gave an FIC index [6] of 1, an FIC index [7] of 0.5 and an MIC [8] of 25.6 µg/mL. It also gave an MIC [9] of 32 µg/mL, an MIC [10] of 5.12 µg/mL and an MIC [11] of 32 µg/mL. The MIC [12] was 1 µg/mL, the MIC [13] was 5 µg/mL and the MIC [14] was 6.4 µg/mL. The MIC [15] was 4.47 µg/mL, the MIC [16] was 0.5 µg/mL and the FIC index [17] was 0.0625. For the same compound, the FIC index [18] was 0.25, the FIC index [19] was 1 and the FIC index [20] was 1. For the same compound, the FIC index [21] was 0.031, the FIC index [22] was 1 and the FIC index [23] was 1. For the same compound, the MIC (Mycobacterium lufu) was 4 µg/mL, the MIC (Mycobacterium marinum) was 4 µg/mL and the MIC [24] was 1 µg/mL. The MIC [25] was 0.03 µg/mL, the MIC [26] was 0.1 µg/mL and the MIC [27] was 0.512 µg/mL. For the same compound, the MIC [28] was 0.01 µg/mL, the MIC [29] was 7.68 µg/mL and the MIC [30] was 0.1 µg/mL. It also gave an MIC [31] of 7.68 µg/mL, an MIC [32] of 2 µg/mL and an MIC [33] of 179 µg/mL. The MIC [34] was 256 µg/mL, the MIC [35] was 0.025 µg/mL and the MIC [36] was 0.05 µg/mL. It also gave an MIC [37] of 0.179 µg/mL, an MIC [38] of 0.1 µg/mL and an MIC [39] of 3 µg/mL.
